Measured values taken from patent US20200255828A1, “METHODS AND COMPOSITIONS FOR ALTERING FUNCTION AND STRUCTURE OF CHROMATIN LOOPS AND/OR DOMAINS” (THE BROAD INSTITUTE, INC., priority 2017, published 2020).
Entries after “also recorded” stand apart in the source; their conditions may differ.

Legend:
HCT-116 cells = assay: Loop reformation (Hi-C APA) after Rad21 degradation and recovery without transcription, replication or ATP; assay type: cell-based, human; settings: Rad21 temporarily degraded and allowed to recover
Description: Using the degron system, Applicants can directly measure the influence of cellular processes on loop formation (Vian et al, 2018). […] Applicants also tested interchromasomal cohesin-independent links requirement for ATP after cohesin degradation and observed that depletion of ATP strengthens the interactions between superenhancers (FIG. 23).

CTCF-AID cells = assay: Rescue experiments in the CTCF-AID cell line (Hi-C); assay type: cell-based, human; settings: endogenous CTCF degraded by auxin
Description: The protein CTCF is thought to act as an oriented brake to halt cohesin-mediated loop extrusion in one direction along the genome but not the other, but how this braking activity is mediated mechanistically is unknown. An important question regarding CTCF barrier activity is whether there is a protein domain mediating the ability to halt extrusion or whether CTCF halts cohesin via steric occlusion. As a proof of principle, Applicants introduced either (i) WT CTCF, (ii) CTCF lacking its N terminal domain, or (iii) CTCF lacking its C terminal domain by transfection into CTCF-AID cells. […] Applicants can systematically identify the key residues in the N terminus of CTCF that are necessary for barrier activity by transfecting plasmids expressing mutant CTCF proteins with tiled mutations on the N terminus and assaying via Hi-C after degradation of endogenous CTCF. Similarly, Applicants can develop HCT-116 degron lines for SA1, SA2, and SA1+SA2 double degron (the cohesin ring co-factors that are thought to mediate the interaction between cohesin and CTCF). By depleting endogenous SA protein, introducing SA proteins with tiled mutations across various domains, and assaying looping via Hi-C, Applicants can similarly identify the residues on the cohesin complex required for interaction with CTCF. […]

Molecule | effect on loop formation during Rad21 recovery (HCT-116 cells) | rescue of the looping phenotype (CTCF-AID cells)
CN1CC[C@H](c2c(O)cc(O)c3c(=O)cc(-c4ccccc4Cl)oc23)[C@H](O)C1 [flavopiridol] | does not block loop formation; also recorded: loop reformation occurs without issue | 
Cc1cn([C@H]2C[C@H](O)[C@@H](CO)O2)c(=O)[nH]c1=O [thymidine] | does not block loop formation; also recorded: loop reformation occurs without issue | 
CC[C@H]1/C=C/C=C/C[C@@H](C)[C@H](O)[C@@](C)(O)C(=O)[C@@H](C)[C@H](O)[C@@H](C)C(=O)[C@@H](C)[C@H](O)[C@@H](C)/C=C/C(=O)O[C@@H]2[C@H](C)[C@H](CC1)O[C@]1(CC[C@H](C)[C@H](C[C@@H](C)O)O1)[C@H]2C [oligomycin] | does block loop formation; also recorded: loop formation requires ATP | 
WT CTCF: wild-type CTCF introduced by transfection into CTCF-AID cells (protein) MEGDAVEAIVEESETFIKGKERKTYQRRREGGQEEDACHLPQNQTDGGEVVQDVNSSVQMVMMEQLDPTLLQMKTEVMEGTVAPEAEAAVDDTQIITLQVVNMEEQPINIGELQLVQVPVPVTVPVATTSVEELQGAYENEVSKEGLAESEPMICHTLPLPEGFQVVKVGANGEVETLEQGELPPQEDPSWQKDPDYQPPAKKTKKTKKSKLRYTEEGKDVDVSVYDFEEEQQEGLLSEVNAEKVVGNMKPPKPTKIKKKGVKKTFQCELCSYTCPRRSNLDRHMKSHTDERPHKCHLCGRAFRTVTLLRNHLNTHTGTRPHKCPDCDMAFVTSGELVRHRRYKHTHEKPFKCSMCDYASVEVSKLKRHIRSHTGERPFQCSLCSYASRDTYKLKRHMRTHSGEKPYECYICHARFTQSGTMKMHILQKHTENVAKFHCPHCDTVIARKSDLGVHLRKQHSYIEQGKKCRYCDAVFHERYALIQHQKSHKNEKRFKCDQCDYACRQERHMIMHKRTHTGEKPYACSHCDKTFRQKQLLDMHFKRYHDPNFVPAAFVCSKCGKTFTRRNTMARHADNCAGPDGVEGENGGETKKSKRGRKRKMRSKKEDSSDSENAEPDLDDNEDEEEPAVEIEPEPEPQPVTPAPPPAKKRRGRPPGRTNQPKQNQPTAIIQVEDQNTGAIENIIVEVKKEPDAEPAEGEEEEAQPAATDAPNGDLTPEMILSMMDR |  | rescue the looping phenotype
